Assay results taken from patent publication US20070203749A1 (priority 2005, published 2007).
Read-outs that look alike come from different tables or passages of the source.

Tests used:
XIAP-Bir3 = XIAP-Bir3 (Homo sapiens, UniProt P98170); assay: Fluorescence polarization binding assay, purified XIAP BIR-3 domain
Description: (§1) Binding constants were measured using fluorescence polarization as described in Zancta Nikolovska-Coleska et al., (2004) Analytical biochemistry, 332, 261-273. Briefly, various known concentrations of each test peptide were mixed with 5 nM fluorescently labeled peptide (AbuRPF-K(5-Fam)—NH2; FP peptide) and 40 nM of XIAP-Bir3, cIAP-1-Bir3 or cIAP-2-Bir3 in 100 μl of 0.1M Potassium Phosphate buffer, pH 7.5 containing 100 μg/ml bovine γ-globulin. These mixtures were incubated for 15 min at room temperature (approximately 22° C.). Following incubation, the polarization values (mP) were measured on a Victor^2V using a 485 nm excitation filter and a 535 nm emission filter. Kj(app) values were determined from the plot using nonlinear least-squares analysis using GraphPad Prism (Table 8).
(§2) In any event, binding to cIAP-1 and cIAP-2 or other IAPs can be determined using standard binding affinity assays, as illustrated above. […] We have utilized the specificity of this IAP binding motif in a fluorescence polarization assay to measure the binding affinities for cIAP-1 and cIAP-2 Antagonists. The fluorescence polarization assay consists of FP peptide, and the recombinant BIR3 domain of the XIAP protein. The FP peptide and mimics of the […] compete for binding to the BIR3 protein. […] If a peptide, peptidomimetic, or other small molecule being tested is a competitor, then it succeeds in displacing the FP peptide, resulting in a low mP value. Molecules that compete with the FP l peptide can be titrated and IC50 values determined (GraphPad Prism nonlinear regression curve-fitting program) by plotting mp values as the direct measure of fraction bound vs, the log of the compound concentration.

cIAP-1-Bir3 = cIAP-1-Bir3 (Homo sapiens, UniProt Q13490); assay: Fluorescence polarization binding assay, purified cIAP-1 BIR-3 domain; settings: for Kd: BIR-3 domain; for binding to cIAP-1 and cIAP-2 relative to XIAP (fold more tightly): ratio of binding constants vs XIAP
Description: as §1, §2

OVCAR-3 cells = assay: Synergistic toxicity with SN-38 (topoisomerase I inhibitor); format: cell-based; settings: compared between Compounds N and H
cIAP-2-Bir3 = cIAP-2-Bir3 (Homo sapiens, UniProt Q13489); assay: Fluorescence polarization binding assay, purified cIAP-2 BIR-3 domain
Description: as §1, §2

SK-OV-3 cells = assay: MTT assay, growth inhibition of ovarian cancer cell line SK-OV-3; format: cell-based; settings: Homo sapiens; for EC50: SK-OV-3, SKOV-3 cells, Table 10; for CC50: SK-OV-3 cells, 72 hrs, concentration giving 50% cell survival, Table 8
Description: The MTT assay was described in Hansen, M. B., Nielson, S. E., and Berg, K. (1989) J. Immunol Methods 119, 203-210 and incorporated herein by reference in its entirety. Briefly, SK-OV-3 cells were seeded in 96-well plates in McCoy's medium containing 10% fetal bovine serum albumin (10,000 per well) and incubated overnight at 37° C. […] This incubation time was optimal for measuring inhibitory effects of different analogs. 50 microliters of 5 mg/mL MTT reagent was added to each well, and the plates were incubated at 37° C. for 3 hours. At the end of the incubation period, 50 microliters of DMSO was added to each well to dissolve cells, and the optical density (OD) of the wells was measured with a microplate reader (Victor^2 1420, Wallac, Finland) at 535 nm. Cell survival (CS) was calculated using the following equation: CS=(OD treated well/mean OD control wells)×100%
The EC50 (Table 1). defined as the drug concentration that results in 50% CS, was derived by calculating the point where the dose-response curve crosses the 50% CS point using GraphPad Prism.

cIAP-1 = target: T1, cIAP-1 (Homo sapiens, UniProt Q13490); assay: Effect of proteasome inhibitor on IAP degradation, western blot, cIAP-1; format: cell-based; settings: SK-OV-3 cells, 20 hrs, absence of bortezomib
T1 construct: endogenous in cells; host or cells: SK-OV-3
Description: (§3) Cells were harvested after trypsinization by centrifuging at 2000 rpm for 10 min. The cell pellet was washed with PBS and lysed with RIPA to disrupt the cell membrane. The lysate after centrifugation was loaded onto a 5-20% polyacrylamide gel to separate the proteins. A Western blot was carried out using standard techniques and probed for XIAP and cIAP-1 proteins as described above.
(§4) Similarly, IAP degradation assays can be carried out by well known techniques, as illustrated above. […] Ubiquitinated protein is then escorted to the 26S proteasome where it undergoes final degradation and the ubiquitin is released and recycled. Once cIAP-1 Antagonists bind to cIAP-1, it results in perturbation of cell survival complexes or dissociation of natural ligands, signaling IAPs to either self ubiquinate or become targets for ubiquitination followed by proteasomal degradation. […] To further elucidate the machinery involved with this phenomenon, we focused on the regulation of IAP stability and asked whether or not the proteasome was involved in the degradation of cIAP-1 and XIAP.

XIAP = target: T2, XIAP (Homo sapiens, UniProt P98170); assay: Effect of proteasome inhibitor on IAP degradation, western blot, XIAP; format: cell-based; settings: SK-OV-3 cells, 20 hrs, absence of bortezomib
T2 construct: endogenous in cells; host or cells: SK-OV-3
Description: as §3, §4

SK-OV-3^S cells = assay: MTT assay, TRAIL sensitivity of parental SK-OV-3^S cells; format: cell-based; settings: SK-OV-3^S cells (parental)
Description: (§5) Another unexpected observation we made was with respect to TRAIL sensitivity. IAP Antagonist-resistant […] cells (SK-OV-3^R) were generated by exposing the parental SK-OV-3 cells ([…]) to an IAP antagonist compound at a concentration that kills 95% of cells. Three days later, viable cells were transferred to a fresh flask and grown to confluency. Two weeks later, the cells were tested for IAP Antagonist sensitivity in an MTT assay as describe above and as expected, found these cells to be resistant to IAP Antagonist cytotoxicity.

SK-OV-3^R cells = assay: MTT assay on IAP Antagonist-resistant SK-OV-3^R cells; format: cell-based; settings: SK-OV-3^R cells (IAP Antagonist-resistant)
Description: as §5

[1] = Table 10, read-out: Kd(App), XIAP
[2] = Table 10, read-out: Kd(App), c-IAP-1
[3] = Table 10, read-out: Kd(App), cIAP-2
[4] = fluorescence polarization, Table 8, read-out: XIAP, Kβ(spp)
[5] = fluorescence polarization, Table 8, read-out: cIAP-1, Kd(3pp)
[6] = fluorescence polarization, Table 8, read-out: cIAP-2, Kd(apβ)

XIAP-Bir3, sequence (P98170 241-356 limits assumed): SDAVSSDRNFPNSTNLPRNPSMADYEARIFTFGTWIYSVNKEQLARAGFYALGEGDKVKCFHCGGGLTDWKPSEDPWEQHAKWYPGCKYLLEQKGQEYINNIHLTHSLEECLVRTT
cIAP-2-Bir3, sequence (Q13489 238-349 limits assumed): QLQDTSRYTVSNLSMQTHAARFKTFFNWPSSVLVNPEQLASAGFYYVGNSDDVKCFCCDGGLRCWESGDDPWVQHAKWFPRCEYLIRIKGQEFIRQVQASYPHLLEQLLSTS
cIAP-1-Bir3, sequence (Q13490 253-363 limits assumed): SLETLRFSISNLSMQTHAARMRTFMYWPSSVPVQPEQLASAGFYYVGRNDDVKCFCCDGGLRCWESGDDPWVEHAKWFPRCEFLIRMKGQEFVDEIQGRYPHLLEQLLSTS
T2 sequence (P98170 whole entry): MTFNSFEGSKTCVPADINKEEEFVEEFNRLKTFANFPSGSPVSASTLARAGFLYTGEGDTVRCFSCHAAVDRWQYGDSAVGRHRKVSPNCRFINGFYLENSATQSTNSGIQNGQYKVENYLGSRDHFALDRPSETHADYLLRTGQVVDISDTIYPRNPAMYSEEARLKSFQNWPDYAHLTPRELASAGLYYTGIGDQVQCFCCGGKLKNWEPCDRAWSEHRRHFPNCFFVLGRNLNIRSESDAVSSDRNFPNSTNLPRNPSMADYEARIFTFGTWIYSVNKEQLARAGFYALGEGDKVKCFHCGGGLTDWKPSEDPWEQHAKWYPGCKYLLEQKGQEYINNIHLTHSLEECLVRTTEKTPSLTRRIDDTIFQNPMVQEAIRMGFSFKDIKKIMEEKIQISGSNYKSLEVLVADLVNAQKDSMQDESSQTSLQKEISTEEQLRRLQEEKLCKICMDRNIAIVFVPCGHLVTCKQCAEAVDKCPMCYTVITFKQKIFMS
T1 sequence (Q13490 whole entry): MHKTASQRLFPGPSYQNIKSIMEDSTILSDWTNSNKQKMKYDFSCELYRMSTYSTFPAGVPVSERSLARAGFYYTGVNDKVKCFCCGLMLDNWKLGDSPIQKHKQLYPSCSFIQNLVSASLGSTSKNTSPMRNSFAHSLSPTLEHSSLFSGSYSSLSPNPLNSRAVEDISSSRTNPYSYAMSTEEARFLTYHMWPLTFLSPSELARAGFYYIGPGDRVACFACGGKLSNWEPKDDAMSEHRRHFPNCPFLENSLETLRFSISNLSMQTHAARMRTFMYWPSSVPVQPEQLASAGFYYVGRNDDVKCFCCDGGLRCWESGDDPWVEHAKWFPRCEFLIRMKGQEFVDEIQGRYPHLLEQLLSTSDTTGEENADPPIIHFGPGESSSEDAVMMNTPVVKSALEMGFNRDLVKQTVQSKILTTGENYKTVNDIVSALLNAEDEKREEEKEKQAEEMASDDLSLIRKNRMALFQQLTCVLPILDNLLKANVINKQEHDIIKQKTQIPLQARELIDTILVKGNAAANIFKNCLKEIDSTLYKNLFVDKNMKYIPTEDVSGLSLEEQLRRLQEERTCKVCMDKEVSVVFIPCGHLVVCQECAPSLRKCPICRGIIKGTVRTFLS

Molecule	Kd (XIAP-Bir3; [4]) [nM]	Kd (cIAP-1-Bir3; [5]) [nM]	Kd (cIAP-2-Bir3; [6]) [nM]	CC50 (SK-OV-3 cells) [µM]	other results
CNC(C)C(=O)NC(C(=O)N1CC(O)CC1Cc1c(-c2ccc(-c3[nH]c4ccccc4c3CC3CC(O)CN3C(=O)C(NC(=O)C(C)NC)C(C)(C)C)cc2)[nH]c2ccccc12)C(C)(C)C (centres unmarked) [N]					Kd (XIAP-Bir3; [1]): 1 nM; Kd (cIAP-1-Bir3; [2]): 1 nM; binding to cIAP-1 and cIAP-2 relative to XIAP (fold more tightly) (cIAP-1-Bir3): comparable affinity; synergistic toxicity with SN-38, synergistic volume (OVCAR-3 cells): comparable; Kd (cIAP-2-Bir3; [3]): 6 nM; EC50 (SK-OV-3 cells): 7 nM
CNC(C)C(=O)NC(C(=O)N1CCCC1Cc1c(-c2ccc(C(=O)OC)cc2)n(CCOCCOCCOC)c2cc(F)ccc12)C(C)(C)C (centres unmarked) [E]	90	16	8	0.046	
CNC(C)C(=O)NC(C(=O)N1CC(OC(C)=O)CC1Cc1c[nH]c2ccccc12)C(C)(C)C (centres unmarked) [I]	200	72	50	0.004	
CNC(C)C(=O)NC(C(=O)N1CC(OC(C)=O)CC1Cc1c[nH]c2ccccc12)C(C)C (centres unmarked) [Compound H]	120			0.007	Kd (XIAP-Bir3; [1]): 117 nM; Kd (cIAP-1-Bir3; [2]): 1 nM; binding to cIAP-1 and cIAP-2 relative to XIAP (fold more tightly) (cIAP-1-Bir3): 117 fold; synergistic toxicity with SN-38, synergistic volume (OVCAR-3 cells): comparable; Kd (cIAP-2-Bir3; [3]): 46 nM; EC50 (SK-OV-3 cells): 7 nM
CCC(C)[C@H](NC(=O)[C@H](C)NC)C(=O)N1CCC[C@H]1Cc1c2n(c3ccc(F)cc13)CCn1c-2c(C[C@@H]2CCCN2C(=O)[C@@H](NC(=O)[C@H](C)NC)C(C)CC)c2cc(F)ccc21 (some centres unmarked) [A]	10	0.5	14	0.0002	
CNC(C)C(=O)NC(C(=O)N1CCCC1Cc1c[nH]c2ccc(C)cc12)C(C)O (centres unmarked) [Compound K]	310	8	6	0.002	
CN[C@@H](C)C(=O)N[C@H](C(=O)N1CCC[C@H]1Cc1c(-c2ccc(-c3c(C[C@@H]4CCCN4C(=O)[C@@H](NC(=O)[C@H](C)NC)C(C)(C)C)c4ccc(F)cc4n3CCO)cc2)n(CCO)c2cc(F)ccc12)C(C)(C)C [Q]					cIAP-1 protein level by western blot (cIAP-1): complete disappearance; XIAP protein level by western blot (XIAP): complete disappearance
CC(C)C(NC(=O)CN)C(=O)N1CC(Oc2ccccc2)CC1Cc1coc2ccccc12 (centres unmarked) [D]	160	17	33	0.043	
CNC(C)C(=O)NC(C(=O)N1CC(OC(C)=O)CC1Cc1c[nH]c2ccccc12)C(C)O (centres unmarked) [J]	460	53	26	0.008	
CNC(C)C(=O)NC(C(=O)N1CCCC1Cc1c(-c2ccc(F)cc2)n(CCOCCOCCOC)c2cc(F)ccc12)C(C)(C)C (centres unmarked) [F]	820	26	120	0.079	
CNC(C)C(=O)NC(C(=O)N1CCCC1Cc1c(-c2ccc(N3CCOCC3)cc2)n(CCOCCOCCOC)c2cc(F)ccc12)C(C)(C)C (centres unmarked) [G]	400	130	180	0.28	
TRAIL: tumor necrosis factor-related apoptosis inducing ligand, member of the TNF superfamily that induces apoptosis through death receptors (protein, UniProt P50591 1-281, looked up) Tumor necrosis factor ligand …: MAMMEVQGGPSLGQTCVLIVIFTVLLQSLCVAVTYVYFTNELKQMQDKYSKSGIACFLKEDDSYWDPNDEESMNSPCWQVKWQLRQLVRKMILRTSEETISTVQEKQQNISPLVRERGPQRVAAHITGTRGRSNTLSSPNSKNEKALGRKINSWESSRSGHSFLSNLHLRNGELVIHEKGFYYIYSQTYFRFQEEIKENTKNDKQMVQYIYKYTSYPDPILLMKSARNSCWSKDAEYGLYSIYQGGIFELKENDRIFVSVTNEHLIDMDHEASFFGAFLVG					TRAIL sensitivity in MTT assay (SK-OV-3^S cells): resistant to TRAIL; TRAIL sensitivity in MTT assay (SK-OV-3^R cells): sensitive to TRAIL
